Test: In-vitro dissolution, standard protocol according to USP 24 monographs
Assay type: physicochemical
Settings: HPLC or UV/VIS detection, control (drug as received) in parenthesis
Experimental: The dissolution progress was measured after 5, 10, 15, and 60 minutes using either High Pressure Liquid Chromatography (HPLC) or UV/VIS detection as the analytical tools. […] For comparison, the corresponding data for the controls are given in parenthesis.

percent of dissolved sample, 5 min (5 min): 31%
percent of dissolved sample, 10 min (10 min): 41%
percent of dissolved sample, 15 min (15 min): 48%
percent of dissolved sample, 60 min (60 min): (100%)
Structure (SMILES): CC(=O)N1CCN(c2ccc(OCC3COC(Cn4ccnc4)(c4ccc(Cl)cc4Cl)O3)cc2)CC1 (stereo not shown) [Ketoconazole, ketoconazole]
